Measured values published in paper PMC5423977, “Safety, pharmacokinetics, and pharmacodynamics of BMS-986142, a novel reversible BTK inhibitor, in healthy participants” (European Journal of Clinical Pharmacology, 2017).

Test: Safety and tolerability (adverse events), Study 1 SAD in healthy participants
Format: in vivo, human
[1] = Study 1 SAD group, BMS-986142-treated
[2] = Study 1 SAD, all BMS-986142 doses, n = 36

## Cc1c(-c2c(F)cc(C(N)=O)c3[nH]c4c(c23)CC[C@H](C(C)(C)O)C4)cccc1-n1c(=O)c2cccc(F)c2n(C)c1=O [BMS-986142, 6-fluoro-5-(R)-(3-(S)-(8-fluoro-1-methyl-2,4-dioxo-1,2-dihydroquinazolin-3(4H)-yl)-2-methylphenyl)-2-(S)-(2-hydroxypropan-2-yl)-2,3,4,9-tetrahydro-1H-carbazole-8-carboxamide]
SAD 5 mg, n = 6
  AE SOC: Gastrointestinal Disorders: 0 n (%)
  AE SOC: General disorders and administration site conditions: 0 n (%)
  AE SOC: Infections and infestations: 0 n (%)
  AE SOC: Injury, poisoning and procedural complications: 0 n (%)
  AE SOC: Musculoskeletal and connective tissue disorders: 0 n (%)
  AE SOC: Nervous system disorders: 0 n (%)
  AE SOC: Renal and urinary disorders: 0 n (%)
  AE SOC: Respiratory, thoracic and mediastinal disorders: 0 n (%)
  AE: Aphthous stomatitis: 0 n (%)
  AE: Chest pain: 0 n (%)
  AE: Contusion: 0 n (%)
  AE: Cough: 0 n (%)
  AE: Diarrhoea: 0 n (%)
  AE: Dizziness: 0 n (%)
  AE: Headache: 0 n (%)
  AE: Lip Dry: 0 n (%)
  AE: Muscle spasms: 0 n (%)
  AE: Nausea: 0 n (%)
  AE: Paraesthesia: 0 n (%)
  AE: Polyuria: 0 n (%)
  AE: Syncope: 0 n (%)
  AE: Tension headache: 0 n (%)
  AE: Thermal burn: 0 n (%)
  AE: Toothache: 0 n (%)
  AE: Upper respiratory tract infection: 0 n (%)
  AE: Vomiting: 0 n (%)
  Total participants with an event: 0 n (%)
SAD 15 mg, n = 6
  AE SOC: Gastrointestinal Disorders: 1 (16.7) n (%)
  AE SOC: General disorders and administration site conditions: 0 n (%)
  AE SOC: Infections and infestations: 0 n (%)
  AE SOC: Injury, poisoning and procedural complications: 0 n (%)
  AE SOC: Musculoskeletal and connective tissue disorders: 0 n (%)
  AE SOC: Nervous system disorders: 0 n (%)
  AE SOC: Renal and urinary disorders: 0 n (%)
  AE SOC: Respiratory, thoracic and mediastinal disorders: 0 n (%)
  AE: Aphthous stomatitis: 1 (16.7) n (%)
  AE: Chest pain: 0 n (%)
  AE: Contusion: 0 n (%)
  AE: Cough: 0 n (%)
  AE: Diarrhoea: 0 n (%)
  AE: Dizziness: 0 n (%)
  AE: Headache: 0 n (%)
  AE: Lip Dry: 0 n (%)
  AE: Muscle spasms: 0 n (%)
  AE: Nausea: 0 n (%)
  AE: Paraesthesia: 0 n (%)
  AE: Polyuria: 0 n (%)
  AE: Syncope: 0 n (%)
  AE: Tension headache: 0 n (%)
  AE: Thermal burn: 0 n (%)
  AE: Toothache: 0 n (%)
  AE: Upper respiratory tract infection: 0 n (%)
  AE: Vomiting: 0 n (%)
  Total participants with an event: 1 (16.7) n (%)
SAD 50 mg, n = 6
  AE SOC: Gastrointestinal Disorders: 0 n (%)
  AE SOC: General disorders and administration site conditions: 0 n (%)
  AE SOC: Infections and infestations: 1 (16.7) n (%)
  AE SOC: Injury, poisoning and procedural complications: 1 (16.7) n (%)
  AE SOC: Musculoskeletal and connective tissue disorders: 1 (16.7) n (%)
  AE SOC: Nervous system disorders: 2 (33.3) n (%)
  AE SOC: Renal and urinary disorders: 0 n (%)
  AE SOC: Respiratory, thoracic and mediastinal disorders: 0 n (%)
  AE: Aphthous stomatitis: 0 n (%)
  AE: Chest pain: 0 n (%)
  AE: Contusion: 1 (16.7) n (%)
  AE: Cough: 0 n (%)
  AE: Diarrhoea: 0 n (%)
  AE: Dizziness: 0 n (%)
  AE: Headache: 2 (33.3) n (%)
  AE: Lip Dry: 0 n (%)
  AE: Muscle spasms: 1 (16.7) n (%)
  AE: Nausea: 0 n (%)
  AE: Paraesthesia: 0 n (%)
  AE: Polyuria: 0 n (%)
  AE: Syncope: 0 n (%)
  AE: Tension headache: 0 n (%)
  AE: Thermal burn: 1 (16.7) n (%)
  AE: Toothache: 0 n (%)
  AE: Upper respiratory tract infection: 1 (16.7) n (%)
  AE: Vomiting: 0 n (%)
  Total participants with an event: 2 (33.3) n (%)
SAD 100 mg, n = 6
  AE SOC: Gastrointestinal Disorders: 1 (16.7) n (%)
  AE SOC: General disorders and administration site conditions: 0 n (%)
  AE SOC: Infections and infestations: 0 n (%)
  AE SOC: Injury, poisoning and procedural complications: 0 n (%)
  AE SOC: Musculoskeletal and connective tissue disorders: 0 n (%)
  AE SOC: Nervous system disorders: 1 (16.7) n (%)
  AE SOC: Renal and urinary disorders: 1 (16.7) n (%)
  AE SOC: Respiratory, thoracic and mediastinal disorders: 0 n (%)
  AE: Aphthous stomatitis: 0 n (%)
  AE: Chest pain: 0 n (%)
  AE: Contusion: 0 n (%)
  AE: Cough: 0 n (%)
  AE: Diarrhoea: 0 n (%)
  AE: Dizziness: 0 n (%)
  AE: Headache: 0 n (%)
  AE: Lip Dry: 0 n (%)
  AE: Muscle spasms: 0 n (%)
  AE: Nausea: 0 n (%)
  AE: Paraesthesia: 0 n (%)
  AE: Polyuria: 1 (16.7) n (%)
  AE: Syncope: 0 n (%)
  AE: Tension headache: 1 (16.7) n (%)
  AE: Thermal burn: 0 n (%)
  AE: Toothache: 0 n (%)
  AE: Upper respiratory tract infection: 0 n (%)
  AE: Vomiting: 1 (16.7) n (%)
  Total participants with an event: 2 (33.3) n (%)
SAD 300 mg, n = 6
  AE SOC: Gastrointestinal Disorders: 1 (16.7) n (%)
  AE SOC: General disorders and administration site conditions: 0 n (%)
  AE SOC: Infections and infestations: 0 n (%)
  AE SOC: Injury, poisoning and procedural complications: 0 n (%)
  AE SOC: Musculoskeletal and connective tissue disorders: 0 n (%)
  AE SOC: Nervous system disorders: 0 n (%)
  AE SOC: Renal and urinary disorders: 0 n (%)
  AE SOC: Respiratory, thoracic and mediastinal disorders: 0 n (%)
  AE: Aphthous stomatitis: 0 n (%)
  AE: Chest pain: 0 n (%)
  AE: Contusion: 0 n (%)
  AE: Cough: 0 n (%)
  AE: Diarrhoea: 0 n (%)
  AE: Dizziness: 0 n (%)
  AE: Headache: 0 n (%)
  AE: Lip Dry: 1 (16.7) n (%)
  AE: Muscle spasms: 0 n (%)
  AE: Nausea: 0 n (%)
  AE: Paraesthesia: 0 n (%)
  AE: Polyuria: 0 n (%)
  AE: Syncope: 0 n (%)
  AE: Tension headache: 0 n (%)
  AE: Thermal burn: 0 n (%)
  AE: Toothache: 0 n (%)
  AE: Upper respiratory tract infection: 0 n (%)
  AE: Vomiting: 0 n (%)
  Total participants with an event: 1 (16.7) n (%)
SAD 900 mg, n = 6
  AE SOC: Gastrointestinal Disorders: 2 (33.3) n (%)
  AE SOC: General disorders and administration site conditions: 1 (16.7) n (%)
  AE SOC: Infections and infestations: 1 (16.7) n (%)
  AE SOC: Injury, poisoning and procedural complications: 0 n (%)
  AE SOC: Musculoskeletal and connective tissue disorders: 0 n (%)
  AE SOC: Nervous system disorders: 2 (33.3) n (%)
  AE SOC: Renal and urinary disorders: 0 n (%)
  AE SOC: Respiratory, thoracic and mediastinal disorders: 1 (16.7) n (%)
  AE: Aphthous stomatitis: 0 n (%)
  AE: Chest pain: 1 (16.7) n (%)
  AE: Contusion: 0 n (%)
  AE: Cough: 1 (16.7) n (%)
  AE: Diarrhoea: 1 (16.7) n (%)
  AE: Dizziness: 1 (16.7) n (%)
  AE: Headache: 2 (33.3) n (%)
  AE: Lip Dry: 0 n (%)
  AE: Muscle spasms: 0 n (%)
  AE: Nausea: 1 (16.7) n (%)
  AE: Paraesthesia: 1 (16.7) n (%)
  AE: Polyuria: 0 n (%)
  AE: Syncope: 0 n (%)
  AE: Tension headache: 0 n (%)
  AE: Thermal burn: 0 n (%)
  AE: Toothache: 0 n (%)
  AE: Upper respiratory tract infection: 1 (16.7) n (%)
  AE: Vomiting: 0 n (%)
  Total participants with an event: 2 (33.3) n (%)
SAD any dose, n = 36
  AE SOC: Gastrointestinal Disorders: 5 (13.9) n (%)
  AE SOC: General disorders and administration site conditions: 1 (2.8) n (%)
  AE SOC: Infections and infestations: 2 (5.6) n (%)
  AE SOC: Injury, poisoning and procedural complications: 1 (2.8) n (%)
  AE SOC: Musculoskeletal and connective tissue disorders: 1 (2.8) n (%)
  AE SOC: Nervous system disorders: 5 (13.9) n (%)
  AE SOC: Renal and urinary disorders: 1 (2.8) n (%)
  AE SOC: Respiratory, thoracic and mediastinal disorders: 1 (2.8) n (%)
  AE: Aphthous stomatitis: 1 (2.8) n (%)
  AE: Chest pain: 1 (2.8) n (%)
  AE: Contusion: 1 (2.8) n (%)
  AE: Cough: 1 (2.8) n (%)
  AE: Diarrhoea: 1 (2.8) n (%)
  AE: Dizziness: 1 (2.8) n (%)
  AE: Headache: 4 (11.1) n (%)
  AE: Lip Dry: 1 (2.8) n (%)
  AE: Muscle spasms: 1 (2.8) n (%)
  AE: Nausea: 1 (2.8) n (%)
  AE: Paraesthesia: 1 (2.8) n (%)
  AE: Polyuria: 1 (2.8) n (%)
  AE: Syncope: 0 n (%)
  AE: Tension headache: 1 (2.8) n (%)
  AE: Thermal burn: 1 (2.8) n (%)
  AE: Toothache: 0 n (%)
  AE: Upper respiratory tract infection: 2 (5.6) n (%)
  AE: Vomiting: 1 (2.8) n (%)
  Total participants with an event: 8 (22.2) n (%)
[1]
  Number of AEs reported: 22 AEs
  Participants with AEs: 8 participants
[2]
  AE: Cough: 1 (2.8) n (%)
  AE: Diarrhea: 1 (2.8) n (%)
  AE: Dizziness: 1 (2.8) n (%)
  AE: Headache/tension headache: 5 (13.9) n (%)
  AE: Nausea: 1 (2.8) n (%)
  AE: Thermal burns: 1 (2.8) n (%)
  AE: Upper respiratory tract infection: 2 (5.6) n (%)
  Subjects with AEs: 8 (22.2) n (%)
Healthy participants, alone and in combination with MTX (studies 1 and 2)
  Tolerability: generally well tolerated
